Measurements taken from US20230159445A1, “STAT INHIBITORY COMPOUNDS AND COMPOSITIONS” (JANPIX LIMITED, priority 2020, published 2023).

Experiments:
[1] = system: normal human fibroblast (NHF) cells; experiment: NHF Cell Cytotoxicity Assay (CellTiter-Blue, 72 h), off-target effects; type: cell-based; details: pooled NHF cells
Procedure: In some embodiments, the off-target effects of the compounds are evaluated in healthy human cells, such as in a normal human fibroblast (NHF) cell cytotoxicity assay.
Cell viability was examined following treatment at various concentrations of inhibitor (0.097656-50 μM) using a cell Titer-Blue cell viability assay. 1×10^4 normal human fibroblast cells per well were plated in 96-well assay plates in culture medium. All cells are grown in DMEM, IMDM and RPMI-1640 were supplemented with 10% FBS. After 24 hours, test compounds and vehicle controls are added to appropriate wells so the final volume was 100 μl in each well. The cells are cultured for the desired test exposure period (72 hours) at 37° C. and 5% CO2. The assay plates are removed from 37° C. incubator and 20 μL/well of CellTiter-Blue® Reagent is added. The plates are incubated using standard cell culture conditions for 1-4 hours and the plates are shaken for 10 seconds and record fluorescence at 560/590nm. For each sample well, value is normalized between the DMSO control and the highest concentration in case of plateau, and converted into a percentage. In the absence of plateau, minimum lecture is obtained from a different sample within the same experiment. For each concentration, the four replicates are averaged and standard deviation calculated. Data is fitted to a log(inhibitor) vs response curve with variable slope model using Microsoft Excel, obtaining IC50 and Hill slope variables.
A person skilled in the art would appreciate that a higher IC50 value in this NHF assay can indicate lower off-target effects.

glutathione (GSH) = experiment: Reactivity Profiling with Glutathione (GSH), half-life by HPLC; details: 5 mM glutathione (GSH) in IMDM with 10% FBS
MV4-11 cells = experiment: MV4-11 Cell Cytotoxicity Assay (CellTiter-Blue, 72 h); type: cell-based, human; details: MV-4-11 cells
How it was run: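 Viability read-out: CellTiter-Blue, 1 h, fluorescence 560/590 nm. Preceded by 72 h exposure (37° C, 5% CO2) to twofold dilution series from 50 μM, triplicate, 0.5% DMSO vehicle, applied 24 h after plating.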

SMILES	IC50 ([1]; Homo sapiens, Fibroblast) [µM]	half-life at 25 μM (glutathione (GSH)) [min]	IC50 (MV4-11 cells; Homo sapiens, MV4-11) [nM]	IC50 [1] [µM]	IC50 (MV4-11 cells) [nM]
COc1cc(C(=O)O)ccc1N(Cc1cc(C2CC2)cc(C2CC2)c1)C(=O)CN(Cc1ncccc1C(F)(F)F)S(=O)(=O)c1c(F)c(F)c(F)c(F)c1F [Compound 1162, 4-(N-(3,5-dicyclopropylbenzyl)-2-(N-((3-(trifluoromethyl)pyridin-2-yl)methyl)-(2,3,4,5,6-pentafluoro-phenyl)sulfonamido)acetamido)-3-methoxybenzoic acid]	10 to 20	142 to 247			
Cc1cc(C(=O)O)cc(C)c1N(Cc1cc(C2CC2)cc(C2CC2)c1)C(=O)CN(Cc1ccc(F)cc1Cl)S(=O)(=O)c1c(F)c(F)c(F)c(F)c1F [Compound 1188, 4-(2-(N-(2-chloro-4-fluorobenzyl)-(2,3,4,5,6-pentafluorophenyl)sulfon-amido)-N-(3,5-dicyclopropylbenzyl)acetamido)-3,5-dimethylbenzoic acid]	0.001 to 10		316 to 1000		
O=C(O)c1ccc(N(Cc2cc(C3CC3)cc(N3CCCC3)c2)C(=O)CN(Cc2cnccc2C(F)(F)F)S(=O)(=O)c2c(F)c(F)c(F)c(F)c2F)c(OC2CC2)c1 [Compound 1190, 3-cyclopropoxy-4-(N-(3-cyclopropyl-5-(pyrrolidin-1-yl)benzyl)-2-(N-((4-(trifluoromethyl)pyridin-3-yl)methyl)-(2,3,4,5,6-pentafluoro-phenyl)sulfonamido)acetamido)benzoic acid]	0.001 to 10	142 to 247			
CC(C)(C)c1cc(CN(C(=O)CN(Cc2ccc(F)cc2Cl)S(=O)(=O)c2c(F)c(F)c(F)c(F)c2F)c2ccc(C(=O)O)cc2C2CC2)cc(C2CC2)c1 [Compound 1193, 4-(N-(3-(tert-butyl)-5-cyclopropylbenzyl)-2-(N-(2-chloro-4-fluorobenzyl)-(2,3,4,5,6-pentafluorophenyl)sulfon-amido)acetamido)-3-cyclopropylbenzoic acid]				10 to 20	0.01 to 316
Cc1cc(C(=O)O)cc(C)c1N(Cc1cc(C2CC2)cc(C2CC2)c1)C(=O)CN(Cc1c(F)c(F)c(F)c(F)c1F)S(=O)(=O)c1c(F)c(F)c(F)c(F)c1F [Compound 1204, 4-(N-(3,5-dicyclopropylbenzyl)-2-(N-((perfluorophenyl)methyl)-(2,3,4,5,6-pentafluoro-phenyl)sulfonamido)acetamido)-3,5-dimethylbenzoic acid]	0.001 to 10		316 to 1000		
CN(C)c1cc(C(=O)O)ccc1N(Cc1cc(C2CC2)cc(N2CCCC2)c1)C(=O)CN(Cc1ccc(F)cc1Cl)S(=O)(=O)c1c(F)c(F)c(F)c(F)c1F [Compound 1212, 4-(2-(N-(2-chloro-4-fluorobenzyl)-(2,3,4,5,6-pentafluorophenyl)sulfon-amido)-N-(3-cyclopropyl-5-(pyrrolidin-1-yl)benzyl)acetamido)-3-(dimethylamino) benzoic acid]	10 to 20		316 to 1000		
O=C(O)c1ccc(N(Cc2cc(C3CC3)cc(C3CC3)c2)C(=O)CN(Cc2ccc(F)cc2C(F)(F)F)S(=O)(=O)c2c(F)c(F)c(F)c(F)c2F)c(OC2CC2)c1 [Compound 1223, 3-cyclopropoxy-4-(N-(3,5-dicyclopropylbenzyl)-2-(N-(4-fluoro-2-(trifluoromethyl)benzyl)-(2,3,4,5,6-pentafluoro-phenyl)sulfonamido)acetamido)benzoic acid]	20 to 30	247 to 554			
CC(C)(C)c1cc(CN(C(=O)CN(Cc2ccccc2C#N)S(=O)(=O)c2c(F)c(F)c(F)c(F)c2F)c2ccc(C(=O)O)cc2OC2CC2)cc(C2CC2)c1 [Compound 1224, 4-(N-(3-(tert-butyl)-5-cyclopropylbenzyl)-2-(N-(2-cyanobenzyl)-(2,3,4,5,6-pentafluorophenyl)sulfon-amido)acetamido)-3-cyclopropoxybenzoic acid]	0.001 to 10				
O=C(O)c1ccc(N(Cc2cc(C3CC3)cc(C3CC3)c2)C(=O)CN(Cc2ccc(F)cc2Cl)S(=O)(=O)c2c(F)c(F)c(F)c(F)c2F)c(OC2CCOCC2)c1 [Compound 1230, 4-(2-(N-(2-chloro-4-fluorobenzyl)-(2,3,4,5,6-pentafluorophenyl)sulfon-amido)-N-(3,5-dicyclopropylbenzyl)acetamido)-3-((tetrahydro-2H-pyran-4-yl)oxy)benzoic acid]	0.001 to 10	142 to 247			
O=C(O)c1ccc(N(Cc2cc(C3CC3)cc(N3CCCC3)c2)C(=O)CN(Cc2ccc(F)cc2Cl)S(=O)(=O)c2c(F)c(F)c(F)c(F)c2F)c(OC2CCCC2)c1 [Compound 1239, 4-(2-(N-(2-chloro-4-fluorobenzyl)-(2,3,4,5,6-pentafluorophenyl)sulfon-amido)-N-(3-cyclopropyl-5-(pyrrolidin-1-yl)benzyl)acetamido)-3-(cyclopentyloxy)benzoic acid]	20 to 30		0.01 to 316		
O=C(O)c1ccc(N(Cc2cc(C3CC3)cc(C3CC3)c2)C(=O)CN(Cc2ccc(F)cc2Cl)S(=O)(=O)c2c(F)c(F)c(F)c(F)c2F)c(N2CCCC2)c1 [Compound 1240, 4-(2-(N-(2-chloro-4-fluorobenzyl)-(2,3,4,5,6-pentafluorophenyl)sulfon-amido)-N-(3,5-dicyclopropylbenzyl)acetamido)-3-(pyrrolidin-1-yl)benzoic acid]	10 to 20		0.01 to 316		
CCc1cc(C(=O)O)ccc1N(Cc1cc(C2CC2)cc(C2CC2)c1)C(=O)CN(Cc1ccc(F)cc1Cl)S(=O)(=O)c1c(F)c(F)c(F)c(F)c1F [Compound 1243, 4-(2-(N-(2-chloro-4-fluorobenzyl)-(2,3,4,5,6-pentafluorophenyl)sulfon-amido)-N-(3,5-dicyclopropylbenzyl)acetamido)-3-ethylbenzoic acid]	10 to 20				
CC(C)c1cc(C(=O)O)ccc1N(Cc1cc(C2CC2)cc(C2CC2)c1)C(=O)CN(Cc1ccc(F)cc1Cl)S(=O)(=O)c1c(F)c(F)c(F)c(F)c1F [Compound 1244, 4-(2-(N-(2-chloro-4-fluorobenzyl)-(2,3,4,5,6-pentafluorophenyl)sulfon-amido)-N-(3,5-dicyclopropylbenzyl)acetamido)-3-isopropylbenzoic acid]	10 to 20				
Cc1cc(C(=O)O)ccc1N(Cc1cc(C2CC2)cc(C(C)(C)C)c1)C(=O)CN(Cc1ccc(F)cc1Cl)S(=O)(=O)c1c(F)c(F)c(F)c(F)c1F [Compound 1250, 4-(N-(3-(tert-butyl)-5-cyclopropylbenzyl)-2-(N-(2-chloro-4-fluorobenzyl)-(2,3,4,5,6-pentafluorophenyl)sulfon-amido)acetamido)-3-methylbenzoic acid]	0.001 to 10		0.01 to 316		
O=C(O)c1ccc(N(Cc2cc(C3CC3)cc(C3CC3)c2)C(=O)CN(Cc2ccc(F)cc2Cl)S(=O)(=O)c2c(F)c(F)c(F)c(F)c2F)c(OC2CCSC2)c1 (stereo not shown) [Compound 1264, 4-(2-(N-(2-chloro-4-fluorobenzyl)-(2,3,4,5,6-pentafluorophenyl)sulfon-amido)-N-(3,5-dicyclopropylbenzyl)acetamido)-3-((tetrahydrothiophen-3-yl)oxy)benzoic acid]	10 to 20				
CCOc1cc(C(=O)O)ccc1N(Cc1cc(C2CC2)cc(C2CC2)c1)C(=O)CN(Cc1ccc(F)cc1C#N)S(=O)(=O)c1c(F)c(F)c(F)c(F)c1F [Compound 1275, 4-(2-((N-(2-cyano-4-fluorobenzyl)-2,3,4,5,6-pentafluorophenyl)sulfonamido)-N-(3,5-dicyclopropylbenzyl)acetamido)-3-ethoxybenzoic acid]	0.001 to 10		0.01 to 316		
